Here are results for eleven molecules from article PMC9596378, “Discovery and molecular basis of subtype-selective cyclophilin inhibitors” (Nature Chemical Biology, 2022).

Where “and” joins values, the source holds several entries; their conditions need not be identical. Equal entries are not always repeated. Where two headings read alike, the source gives them in different places.

For test [1], the system named is isolated mouse liver mitochondria. Nature of the test: Mitochondrial calcium retention capacity assay (mPTP opening). Particulars: for calcium retention capacity before mPTP opening (in words): 2 µM CsA, 10 µM B52-Cy5/*B52-Cy5, 20 µM B53-Cy5/*B53-Cy5, vs DMSO; for Normalized # Pulses (calcium retention capacity ratio to DMSO): 60 µM CaCl2 pulses, individual mitochondrial preparations. The protocol: All procedures used in animal studies were approved by the Institutional Animal Care and Use Committee at Massachusetts General Hospital. Female C57BL/6J mice (Jackson Labs) age 10–12 weeks were anesthetized by isoflurane. The liver from one mouse was rinsed in ice-cold PBS, minced in ice-cold isolation buffer containing 0.28 M sucrose, 10 mM Hepes-KOH pH 7.2, 0.2 mM EDTA and 1% (w/v) bovine serum albumin, gently homogenized with four strokes of a tight-fitting Teflon pestle at 1,000 r.p.m., and then centrifuged for 10 min at 600g at 4 °C. The supernatant was recovered and centrifuged for 10 min at 8,000g at 4 °C. The loose outer buffy coat was rinsed off and the pellet resuspended gently in isolation buffer and the spins were repeated. […] The suspension was kept on ice and all assays performed within 4–6 h following isolation. Quality control was done with every preparation by adding 250 mcg mitochondria to 500 µL assay buffer containing 137 mM KCl, 10 mM Hepes-KOH pH 7.2, 2.5 mM MgCl2, 5 mM each of glutamate and malate, and 3 mM KH2PO4. Sequential 150 µM ADP pulses were then delivered. Only preparations with respiratory control ratio >6 (as assessed by the ratio of ADP-coupled state 3 respiration to state 4 respiration) were used for further experiments. Measurements were made in a custom-built spectrometer.
Two hundred and fifty micrograms of mouse liver mitochondria isolated as above were added to 500 µL assay buffer containing 125 mM KCl, 20 mM Hepes-KOH pH 7.2, 1 mM MgCl2, 5 mM each of glutamate and malate, and 3 mM KH2PO4. 0.5 µM Calcium Green 5N (Molecular Probes) was included to monitor extramitochondrial free Ca^2+. Fluorescence was continuously monitored in the custom-built fluorimeter described above, with excitation 470 nm and emission 520–560 nm. […] The calcium retention capacity ratio was obtained by normalizing the number of Ca^2+ pulses that could be taken up in a given condition by that taken up under DMSO control conditions, as previously described.

In a further test the target is T1, CypD S123E (Homo sapiens, UniProt P30405, S123E).
T1 construct: made in house; host or cells: E. coli BL21(DE3)
Nature of the test: Chymotrypsin coupled prolyl-isomerase assay. Type of test: biochemical. Particulars: prolyl-isomerase inhibition. The method in brief:
(§1)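 Steps: cyclophilin plus compound 5 min at 2–3 °C; α-chymotrypsin added, 5 min more; Suc-AAPF-AMC substrate in LiCl/trifluoroethanol injected and fluorescence followed 330 s. Finals: 5 nM enzyme, 25 µM chymotrypsin, 5 µM substrate, 0.25% DMSO.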

A further test deals with T2, CypB E121S (Homo sapiens, UniProt P23284, E121S).
T2 construct: Lane 14- SNA-CypB E121S (34-216);; His6 tag with TEV site (2BT vector); SNA remnant stays on the N-terminus (N, cleaved yes); made in house; host or cells: E. coli BL21(DE3)
Nature of the test: biochemical. The gist of the method: as §1

The target in the next test is T3, CypE (Homo sapiens, UniProt Q9UNP9).
T3 construct: PPIE (UniProtKB Entry Q9UNP9: residues 131–301); host or cells: E. coli BL21(DE3)
In words: Competition anisotropy binding assay with A26-Fl. On the procedure:
Adapted from previous work[52], cyclophilin in assay buffer (25 mM HEPES pH 8.0, 100 mM NaCl, 0.01% Triton X-100) at a pre-determined concentration from Supplementary Table 6 was incubated with 0.5 nM A26-Fl for 10 min at room temperature in a flat-bottom black untreated 96-well plate (Corning). Competitor macrocycle was then added to each well and incubated for 24 h. Final assay volume was 100 µL with 0.25% DMSO. Fluorescence anisotropy was then measured using a Tecan Spark plate reader using 492 nm/523 nm excitation/emission settings.

A further test deals with T4, His6-CypD (Homo sapiens, UniProt P30405).
T4 construct: PPIF (UniProtKB Entry P30405: residues 45–207); made in house; host or cells: E. coli BL21(DE3)
In words: Surface plasmon resonance analysis of CypD ligands. It is filed as binding. Particulars: immobilized CypD; read-out: KD CypD (SPR). The protocol: Adapting a previously used protocol, employing a Biacore T200 SPR, a Sensor S NTA (Biacore) chip was pre-loaded with 0.3 M NiCl2 and His6-CypD (50.24 nM, 1 µg mL^−1) within a solution of 10 mM HEPES, 150 mM NaCl, 0.005% Tween-20 and 1 mM TCEP (surface plasmon resonance (SPR) buffer). Protein was covalently immobilized subsequently with injection of 200 mM 1-ethyl-3-(3-dimethylaminopropyl)carbodiimide (EDC) 50 mM N-hydroxysuccinimide (NHS). EDC–NHS-activated chip was quenched by flowing 1 M ethanolamine over the chip. Compounds were dissolved in 1% DMSO/SPR buffer and flowed over the SPR chip. Binding analysis was conducted from raw sensorgram resonance unit (RU) values, where individual replicates represent kinetic fitted RU value during time of compound administration at each dose. RU values were normalized to DMSO treatment and the maximum RU value of 200 µM JOMBt. These values were evaluated using Prism v.9 by fitting one site-specific binding to calculate KD values.
(In SPR one partner is held on a chip, and binding of the other changes the refractive index at the surface.)

Setting [2] is: mutant CypB E121S, read-out: Mutant Cyclophilin Prolyl Isomerase Inhibition IC50 Values, CypB E121S.
[3] abbreviates: prolyl-isomerase inhibition, read-out: IC50 CypB E121S.

T3 sequence (Q9UNP9 131-301): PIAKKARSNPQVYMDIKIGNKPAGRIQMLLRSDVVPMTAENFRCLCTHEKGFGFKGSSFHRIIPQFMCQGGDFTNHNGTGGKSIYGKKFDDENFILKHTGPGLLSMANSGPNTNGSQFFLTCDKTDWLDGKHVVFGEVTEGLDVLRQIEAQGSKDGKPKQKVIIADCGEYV
T2 sequence (P23284 34-216 E121S): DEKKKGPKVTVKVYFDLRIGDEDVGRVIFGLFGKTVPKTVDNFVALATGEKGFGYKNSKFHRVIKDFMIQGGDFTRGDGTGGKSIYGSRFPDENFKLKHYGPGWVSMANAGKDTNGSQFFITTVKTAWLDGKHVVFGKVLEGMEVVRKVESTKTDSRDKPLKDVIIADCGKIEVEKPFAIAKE
T1 sequence (P30405 45-207 S123E): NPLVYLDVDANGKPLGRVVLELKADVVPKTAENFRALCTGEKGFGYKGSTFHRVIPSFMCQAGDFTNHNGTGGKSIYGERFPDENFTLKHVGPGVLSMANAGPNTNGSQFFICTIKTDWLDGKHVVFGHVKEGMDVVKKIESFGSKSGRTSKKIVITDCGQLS
T4 sequence (P30405 45-207): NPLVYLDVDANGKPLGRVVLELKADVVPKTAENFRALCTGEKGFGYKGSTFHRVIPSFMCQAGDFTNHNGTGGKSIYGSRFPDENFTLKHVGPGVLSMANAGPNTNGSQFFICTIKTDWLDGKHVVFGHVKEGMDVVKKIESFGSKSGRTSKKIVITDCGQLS

For the molecule `C[N+]1=C(C=CC=CC=C2N(CCCCCC(=O)NCCNC(=O)C3CCNC(=O)C=CC(=O)N4CCCC(Cc5ccccc5)(C4)C(=O)NC(Cc4ccc(-c5ccc(CC(C(=O)O)C(=O)O)cc5)cc4)C(=O)NCc4ccccc4CC(=O)N3)c3ccccc3C2(C)C)C(C)(C)c2ccccc21` (centres unmarked) [*B52-Cy5], the “calcium retention capacity before mPTP opening (in words)” value in test [1] is on record as “do not influence calcium retention capacity”. Moreover, the “Normalized # Pulses (calcium retention capacity ratio to DMSO)” value in test [1] (10 µM compound) turned out to be 1. For `C[N+]1=C(C=CC=CC=C2N(CCCCCC(=O)NCCNC(=O)C3CCNC(=O)C=CC(=O)N4CCCC(Cc5ccccc5)(C4)C(=O)NC(Cc4ccc(-c5ccc(C(CC(=O)O)CC(=O)O)cc5)cc4)C(=O)NCc4ccccc4CC(=O)N3)c3ccccc3C2(C)C)C(C)(C)c2ccccc21` (centres unmarked) [*B53-Cy5], in test [1], the “calcium retention capacity before mPTP opening (in words)” value is listed as “do not influence calcium retention capacity”. Besides, in test [1] (20 µM compound), the “Normalized # Pulses (calcium retention capacity ratio to DMSO)” value was found to be 1. As usually defined, the IC50 is the midpoint of a concentration-inhibition curve. As for `NCCOCCNC(=O)[C@@H]1CCNC(=O)/C=C/C(=O)N2CCC[C@](Cc3ccccc3)(C2)C(=O)N[C@@H](Cc2ccc(-c3ccc(CCC(=O)O)cc3)cc2)C(=O)NCc2ccccc2CC(=O)N1` [Compound B23], the IC50 at CypD S123E amounted to 23 nM; on CypB E121S (setting [2]), 8 nM.

`NCCOCCNC(=O)[C@@H]1CCNC(=O)/C=C/C(=O)N2CCC[C@](Cc3ccccc3)(C2)C(=O)N[C@@H](Cc2ccc(-c3ccc(C#CC(=O)O)cc3)cc2)C(=O)NCc2ccccc2CC(=O)N1` [Compound B25]: the IC50 at CypD S123E is 8 nM; on CypB E121S (setting [2]) it was 2.2 nM. Consider `C[N+]1=C(C=CC=CC=C2N(CCCCCC(=O)NCCNC(=O)C3CCNC(=O)C=CC(=O)N4CCCC(Cc5ccccc5)(C4)C(=O)NC(Cc4ccc(-c5ccc(CC(C(=O)O)C(=O)O)cc5)cc4)C(=O)NCc4ccccc4CC(=O)N3)c3ccccc3C2(C)C)C(C)(C)c2ccccc21` (centres unmarked) [Compound B52-Cy5], for which, in test [1], the “calcium retention capacity before mPTP opening (in words)” value was “substantially increased calcium retention capacity”. Further, the “Normalized # Pulses (calcium retention capacity ratio to DMSO)” value in test [1] (10 µM compound) is 4.333 and 3 and 4. In the case of `NCCOCCNC(=O)[C@@H]1CCNC(=O)/C=C/C(=O)N2CCC[C@](Cc3ccccc3)(C2)C(=O)N[C@@H](Cc2ccc(-c3ccc(CC(C(=O)O)C(=O)O)cc3)cc2)C(=O)NCc2ccccc2CC(=O)N1` [Compound B52], the IC50 against CypD S123E worked out at 240 nM; on CypB E121S (setting [3]) it was 8 nM.

For the molecule `C[N+]1=C(C=CC=CC=C2N(CCCCCC(=O)NCCNC(=O)C3CCNC(=O)C=CC(=O)N4CCCC(Cc5ccccc5)(C4)C(=O)NC(Cc4ccc(-c5ccc(C(CC(=O)O)CC(=O)O)cc5)cc4)C(=O)NCc4ccccc4CC(=O)N3)c3ccccc3C2(C)C)C(C)(C)c2ccccc21` (centres unmarked) [Compound B53-Cy5], in test [1], the “calcium retention capacity before mPTP opening (in words)” value was “substantially increased calcium retention capacity”. Besides, the “Normalized # Pulses (calcium retention capacity ratio to DMSO)” value in test [1] (20 µM compound) was 2.667 and 1.25 and 2.

Turning to `NCCOCCNC(=O)[C@@H]1CCNC(=O)/C=C/C(=O)N2CCC[C@](Cc3ccccc3)(C2)C(=O)N[C@@H](Cc2ccc(-c3ccc(C(CC(=O)O)CC(=O)O)cc3)cc2)C(=O)NCc2ccccc2CC(=O)N1` [Compound B53], the IC50 on CypD S123E stood at 800 nM; on CypB E121S (setting [3]), 50 nM. `NC(=O)C1CCNC(=O)C=CC(=O)N2CCCC(Cc3ccccc3)(C2)C(=O)NC(Cc2ccc(-c3ccc(C=O)c(B(O)O)c3)cc2)C(=O)NCc2ccccc2CC(=O)N1` (centres unmarked) [Compound C3A]: the “selectivity for CypE over other tested cyclophilins” value on CypE (FP competition with A26-Fl) is at least 10 fold. As a reminder, the Ki is a measure of affinity in units of concentration, obtained from inhibition or displacement. The low end stands for tighter binding, the high end for weaker binding. Molecule `NC(=O)[C@@H]1CCNC(=O)/C=C/C(=O)N2CCC[C@](Cc3ccccc3)(C2)C(=O)N[C@@H](Cc2ccc(-c3cccc(B(O)O)c3)cc2)C(=O)NCc2ccccc2CC(=O)N1` [Compound C6A] had a Ki on CypE (FP competition with 0.5 nM A26-Fl, 24 h) of 7000 nM. In addition, the “reduced potency relative to C3A” value on CypE (FP competition with A26-Fl, CypE) came out at 100 fold. One may read the Kd as the free concentration of one partner at which half of the binding sites on the other are occupied at equilibrium, for simple one-to-one binding. For the molecule `NCCOCCNC(=O)C1CCNC(=O)C=CC(=O)N2CCCC(C2)C(=O)NC(Cc2ccco2)C(=O)NCc2ccccc2CC(=O)N1` (centres unmarked) [JOMBt], the Kd on His6-CypD came to 19000 nM.
